According to patent publication US9079876B2, “Imidazole derivatives and preparation method and use thereof” (Beijing Orbiepharm Co., Ltd., priority 2010, dated 2015):

Test system: mice forced swimming immobility time
Test: Forced swimming test in mice (anti-depression model)
Type: in vivo, Male Kunming mice
Method: In Vivo Study: The Forced Swimming Test in Mice (Evaluation on Anti-Depression Model)
Male Kunming mice, approximately 20 g, were randomized into six groups, i.e. normal group, positive drug group (fluoxetine 20 mg/kg), group A (5 mg/kg Compound 1), group B (10 mg/kg Compound 1), group C (20 mg/kg Compound 1), and group D (40 mg/kg Compound 1).
Single Dose Test: Mice were normally fed for 1 day and allowed to adapt to the environment. Then the mice were fasted (except water) for 16 hours, and were intragastrically administrated with a single dose of the test drug, and the normal group was intragastrically administrated with an equivalent amount of distilled water. 40 min after administration, the mice were placed in forced swimming test device (swimming environment: pool diameter 12.5 cm cylinder, water temperature 25° C. and water depth 10 cm). Mice swam for six minutes, and the immobility time (i.e., the time during which the limbs were immobile, or only the feet were thrashing or paddling) was recorded with an animal behavioral record system, for the latter 4 min within the 6 min recording period, and was used for statistical analysis.
(§1) Study with Three-Day Consecutive Dosing: Mice were normally fed for 1 day and allowed to adapt to the environment. Then the mice were intragastrically administrated with the test drug consecutively for three days (once per day). The normal group was intragastrically administrated equivalent amount of distilled water. Mice were fasted (except water) for 16 hours before the last dosing. 40 min after the last dosing, the mice were placed in forced swimming test device (swimming environment: pool diameter 12.5 cm cylinder, water temperature 25° C. and water depth 10 cm). Mice swam for six minutes, and the immobility time (i.e., the time during which the limbs were immobile, or only the feet were thrashing or paddling) was recorded with an animal behavioral record system, for the latter 4 min within the 6 min recording period, and was used for statistical analysis.
as §1, with “Seven-Day” for “Three-Day”, “seven” for “three”

## CS(=O)(=O)c1ccc(-n2cnc(Cl)c2-c2ccccc2)nc1 [Compound 1, 2-(4-chloro-5-phenyl-1H-imidazol-1-yl)-5-(methylsulfonyl)pyridine]
3 days consecutive administration, 5 mg/kg intragastric, 5 mg/kg
  forced swimming Immobility time: tendency of reduction in forced swimming immobility time
3 days consecutive administration, 5 mg/kg intragastric, 5 mg/kg, in s (unit assumed)
  forced swimming Immobility time: 119.73 ± 24.55
3 days consecutive administration, 10 mg/kg intragastric, in s (unit assumed)
  forced swimming Immobility time: 91.73 ± 22.08
3 days consecutive administration, 20 mg/kg intragastric, in s (unit assumed)
  forced swimming Immobility time: 83.12 ± 32.57
3 days consecutive administration, 40 mg/kg intragastric, in s (unit assumed)
  forced swimming Immobility time: 63.32 ± 30.46
7 days consecutive administration, 5 mg/kg intragastric, 5 mg/kg
  forced swimming Immobility time: tendency of reduction in forced swimming immobility time
7 days consecutive administration, 5 mg/kg intragastric, 5 mg/kg, in s (unit assumed)
  forced swimming Immobility time: 102.72 ± 34.07
7 days consecutive administration, 10 mg/kg intragastric, in s (unit assumed)
  forced swimming Immobility time: 86.40 ± 34.65
7 days consecutive administration, 20 mg/kg intragastric, in s (unit assumed)
  forced swimming Immobility time: 86.84 ± 30.21
7 days consecutive administration, 40 mg/kg intragastric, in s (unit assumed)
  forced swimming Immobility time: 83.84 ± 35.50
Single dose, 5 mg/kg intragastric, 40 min after administration, 5 mg/kg
  forced swimming Immobility time: tendency of reduction in forced swimming immobility time
Single dose, 5 mg/kg intragastric, 40 min after administration, 5 mg/kg, in s (unit assumed)
  forced swimming Immobility time: 102.24 ± 27.33
Single dose, 10 mg/kg intragastric, 40 min after administration, in s (unit assumed)
  forced swimming Immobility time: 92.85 ± 38.81
Single dose, 20 mg/kg intragastric, 40 min after administration, in s (unit assumed)
  forced swimming Immobility time: 87.55 ± 42.50
Single dose, 40 mg/kg intragastric, 40 min after administration, in s (unit assumed)
  forced swimming Immobility time: 90.86 ± 39.53
